The values below come from US20260176262A1, “KRAS INHIBITORS, PREPARATION METHOD THEREFOR, AND PHARMACEUTICAL USE THEREOF” (ABBISKO THERAPEUTICS CO., LTD., priority 2021, published 2026).

Where two headings read alike, the source gives them in different places.

One data set concerns AGS cell. Put plainly: Anti-proliferative 2D CTG assay, AGS cells. The data set is classed as cell-based. The conditions noted are these: Homo sapiens, 72 h. The essentials: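 Cells seeded at 1000/well overnight, then treated with 10-point 1:5 dilutions ([…], 0.1% DMSO) for 3 days at 37° C. Viability read by CellTiter-Glo luminescence; % inhibition versus HPE/ZPE controls, IC50 from four-parameter fit.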

The nature of a further data set: in vivo. The conditions noted are these: male, ICR, mouse, po, 10 mg/kg.
Another data set addresses KRAS^G12D/cRAF (Homo sapiens, UniProt P01116, G12D). Nature of the data set: KRAS G12D/cRAF binding test (Alphalisa). As to conditions: His-tagged KRAS G12D + GMPPNP, GST-tagged cRAF. The essentials:
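His-tagged KRAS G12D loaded with GMPPNP was incubated with compound (8-point 3-fold series from 5 mM DMSO stock) and then GST-cRAF for 15 min at room temperature. AlphaLISA detection followed after 60 min. IC50 came from a four-parameter fit of signal ratios against the DMSO control.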
A general note: Bead proximity is the source of the signal in Alpha formats.

A short description of data set [1]: Pharmacokinetic experiment in mice. As to conditions: male, ICR, mouse, plasma.
Method: (§1) ICR mice male N=3 original source: Shanghai Sippr-Bk Lab Animal Co., Ltd.
(§2) Single oral (PO) administration in ICR mice: The compounds were weighed and added to the solvent of 0.5% CMC+1% Tween 80 respectively, well shaken, and ultrasonicated to get a light yellow suspension. 3 mice were administered orally after fasting overnight. The dose was 10 mg/kg.
(§3) About 90 μL/timepoint blood was collected through the orbital cavity, anticoagulated with sodium heparin, placed on ice after collection, and centrifuged to separate the plasma within 1 hour (centrifugation conditions: 8000 rpm, 6 m 2-8C). The blood collection timepoints were 0, 0.25, 0.5, 1, 2, 4, 6, 8 and 24 h. The samples were stored in a −20° C. refrigerator.
(§4) The plasma sample was 40 μL, 160 μL of ice-cold acetonitrile containing internal standard was added, vortexed for 1 minute, and centrifuged at 18,000 rpm for 10 minutes. The supernatant was transferred to a 96-well plate, and 5 μL was injected into LC-MS/MS for analysis.
Setting [2] is: AGS cells, incubated 3 days, CTG, class symbols, read-out: AGS cell IC50.
Where [3] appears, read: AGS cells, incubated 3 days, CTG, numeric values, read-out: AGS cell IC50.

KRAS^G12D/cRAF, sequence (P01116 1-188 isoform P01116-2 G12D): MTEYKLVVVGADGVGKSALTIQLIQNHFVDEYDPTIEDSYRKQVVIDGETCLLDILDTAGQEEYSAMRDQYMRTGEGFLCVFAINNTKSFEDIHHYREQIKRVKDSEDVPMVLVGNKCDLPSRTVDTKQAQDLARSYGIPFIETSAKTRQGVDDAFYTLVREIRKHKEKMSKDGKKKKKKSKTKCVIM
Method for in vivo: as §1, §2, §3, §4

For orientation: IC50 means the concentration at which inhibition is half-maximal. By AUC(0-t) is commonly meant the area under the concentration-time curve up to a stated or last time point. Low readings indicate less exposure, high ones more exposure. Usually half-life stands for the time in which the quantity being followed falls by half. Lower therefore signals rapid decline. For `[2H]C([2H])([2H])OCC12CCC(CN(c3nc(OC[C@@]45CCCN4C[C@H](F)C5)nc4c(F)c(-c5cc(O)c(F)c6ccc(F)c(C#C)c56)ncc34)C1)N2` (stereo partly drawn) [Example 14, 5-ethynyl-1,6-difluoro-4-(8-fluoro-2-(((2R,7aS)-2-fluorotetrahydro-1H-pyrrolizin-7a(5H)-yl)methoxy)-4-(1-((methoxy-d3)methyl)-3,8-diazabicyclo[3.2.1]octan-3-yl)pyrido[4,3-d]pyrimidin-7-yl)naphthalen-2-ol], the IC50 in the data set on AGS cell (setting [2]) is more than 500 nM. In “in vivo”, the AUC(0-t) stood at 607 ng·h/mL and the half-life was 348 min.
Take `C#Cc1c(F)ccc2cc(O)cc(-c3ncc4c(N5CC6CCC(COCC)(C5)N6)nc(OC[C@@]56CCCN5C[C@H](F)C6)nc4c3F)c12` (stereo partly drawn) [Example 32, 4-(4-(1-(ethoxymethyl)-3,8-diazabicyclo[3.2.1]octan-3-yl)-8-fluoro-2-(((2R,7aS)-2-fluorotetrahydro-1H-pyrrolizin-7a(511)-yl)methoxy)pyrido[4,3-d]pyrimidin-7-yl)-5-ethynyl-6-fluoronaphthalen-2-ol]: at KRAS^G12D/cRAF (class symbols), the half-maximal inhibitory concentration (IC50) lay within 50 to 500 nM. In addition, the IC50 in the data set with AGS cell (AGS, read-out: AGS cell IC50 (nM)) is less than 50 nM. In data set [1] (po, 10 mg/kg), this molecule had an AUC(0-t) of 2200 ng·h/mL and a half-life of 276 min.
Take `[2H]C([2H])([2H])C12CCC(CN(c3nc(OC[C@@]45CCCN4C[C@H](F)C5)nc4c(F)c(-c5cc(O)cc6ccc(F)c(C#C)c56)nc(OC)c34)C1)N2` (stereo partly drawn) [Example 38, 5-ethynyl-6-fluoro-4-(8-fluoro-2-(((2R,7aS)-2-fluorotetrahydro-1H-pyrrolizin-7a(5H)-yl)methoxy)-5-methoxy-4-(1-(methyl-d3)-3,8-diazabicyclo [3.2.1]octan-3-yl)pyrido [4,3-d]pyrimidin-7-yl)naphthalen-2-ol]: the IC50 on KRAS^G12D/cRAF (class symbols) is less than 50 nM. The IC50 in the data set with AGS cell (setting [2]) was 50 to 500 nM. In addition, in data set [1] (po, 10 mg/kg), the AUC(0-t) amounted to 115 ng·h/mL and the half-life was 552 min.
One may read the bioavailability as dose-corrected exposure relative to a reference, in per cent. A high value points to much systemic uptake. Consider `[2H]C([2H])([2H])[C@@]12CC[C@@H](CN(c3nc(OC[C@@]45CCCN4C[C@H](F)C5)nc4c(F)c(-c5cc(O)cc6ccc(F)c(C#C)c56)ncc34)C1)N2` [Example 43, 5-ethynyl-6-fluoro-4-(8-fluoro-2-(((2R,7aS)-2-fluorotetrahydro-1H-pyrrolizin-7a(5 H)-yl)methoxy)-4-((1R,5S)-1-(methyl-d3)-3,8-diazabicyclo[3.2.1]octan-3-yl)pyrido[4,3-d]pyrimidin-7-yl)naphthalen-2-ol], for which, at KRAS^G12D/cRAF (numeric values), the IC50 is 4.6 nM. The IC50 in the data set on AGS cell (setting [3]) stood at 1.5 nM. In data set [1] (iv, 2 mg/kg), this molecule had an AUC(0-t) of 214 ng·h/mL and a half-life of 324 min. For the same molecule, in data set [1] (po, 10 mg/kg), the AUC(0-t) was determined as 733 ng·h/mL, the bioavailability amounted to 5.8% and the half-life was 942 min.
Take `[2H]C([2H])([2H])OC[C@@]12CC[C@@H](CN(c3nc(OC[C@@]45CCCN4C[C@H](F)C5)nc4c(F)c(-c5cc(O)cc6ccc(F)c(C#C)c56)nc(OC)c34)C1)N2` [Example 50, 5-ethynyl-6-fluoro-4-(8-fluoro-2-(((2R,7aS)-2-fluorotetrahydro-1H-pyrrolizin-7a(5H)-yl)methoxy)-5-methoxy-4-((1R,5S)-1-((methoxy-d3)methyl)-3,8-diazabicyclo[3.2.1]octan-3-yl)pyrido[4,3-d]pyrimidin-7-yl)naphthalen-2-ol]: on KRAS^G12D/cRAF (numeric values), the IC50 came to 10 nM. The IC50 in the data set on AGS cell (setting [3]) is 6.5 nM. In data set [1] (iv, 2 mg/kg), this molecule gave an AUC(0-t) of 1100 ng·h/mL and a half-life of 402 min. Also, in data set [1] (po, 10 mg/kg), the AUC(0-t) amounted to 2660 ng·h/mL, the bioavailability was 48% and the half-life is 384 min.
Regarding `C#Cc1c(F)ccc2cc(O)cc(-c3ncc4c(N5C[C@@H]6CC[C@](CC)(C5)N6)nc(OC[C@@]56CCCN5C[C@H](F)C6)nc4c3F)c12` [Example 54, 4-(4-((1R,5S)-1-ethyl-3,8-diazabicyclo[3.2.1]octan-3-yl)-8-fluoro-2-(((2R,7aS)-2-fluorotetrahydro-1H-pyrrolizin-7a(5H)-yl)methoxy)pyrido[4,3-d]pyrimidin-7-yl)-5-eth ynyl-6-fluoronaphthalen-2-ol], the IC50 at KRAS^G12D/cRAF (numeric values) was 55 nM; with AGS cell (setting [3]), 7.3 nM. Moreover, the AUC(0-t) in data set [1] (iv, 2 mg/kg) is 460 ng·h/mL; in data set [1] (po, 10 mg/kg), 1160 ng·h/mL. Besides, the half-life in data set [1] (iv, 2 mg/kg) was 462 min; in data set [1] (po, 10 mg/kg), 588 min. Also, the bioavailability in data set [1] (po, 10 mg/kg) was 51%.
For the molecule `C#Cc1c(F)ccc2cc(O)cc(-c3ncc4c(N5C[C@H]6CC[C@@](C=C)(C5)N6)nc(OC[C@@]56CCCN5C[C@H](F)C6)nc4c3F)c12` [Example 57, 5-ethynyl-6-fluoro-4-(8-fluoro-2-(((2R,7aS)-2-fluorotetrahydro-1H-pyrrolizin-7a(5 H)-yl)methoxy)-4-((1R,5R)-1-vinyl-3,8-diazabicyclo[3.2.1]octan-3-yl)pyrido[4,3-d]pyrimidin-7-yl)naphthalen-2-ol], the IC50 on KRAS^G12D/cRAF (numeric values) is 15 nM. Besides, the IC50 in the data set on AGS cell (setting [3]) stood at 8.1 nM. Besides, in data set [1] (iv, 2 mg/kg), the AUC(0-t) was 375 ng·h/mL and the half-life was 306 min. In data set [1] (po, 10 mg/kg), this molecule showed an AUC(0-t) of 1790 ng·h/mL, a bioavailability of 95% and a half-life of 270 min.
